In ChEMBL document CHEMBL3286119, “Biarylmethoxy Nicotinamides As Novel and Specific Inhibitors of Mycobacterium tuberculosis” (ACS Med Chem Lett, 2014):
In brackets after ≈: the same amount, converted by molar mass. Activity calls are given as the source filed them. The rule behind the calls is not given here.

Key:
[1] = Cytotoxicity against human THP1 cells after 24 hrs by resazurin assay; assay type: cell-based, THP-1; conditions: read-out: MIC
[2] = test system: Mycobacterium tuberculosis; test: Antimicrobial activity against Mycobacterium tuberculosis H37Rv ATCC 27294 after 5 days by microdilution method; assay type: functional; conditions: H37Rv ATCC 27294, 120 h
[3] = test system: Mycobacterium tuberculosis; test: Antimicrobial activity against Mycobacterium tuberculosis ATCC 25618 after 2 to 3 weeks; assay type: functional, organism-based
[4] = test system: Mycobacterium tuberculosis; test: Antimicrobial activity against Mycobacterium tuberculosis Harlingen after 2 to 3 weeks; assay type: functional, organism-based
[5] = test system: Mycobacterium tuberculosis; test: Antimicrobial activity against ofloxacin Mycobacterium tuberculosis 12119 after 2 to 3 weeks; assay type: functional, organism-based
[6] = test system: Mycobacterium tuberculosis; test: Antimicrobial activity against Mycobacterium tuberculosis JALMA clinical isolate after 2 to 3 weeks; assay type: functional, organism-based
Cytochrome P450 1A2 = molecular target: T1, Cytochrome P450 1A2 (Homo sapiens, UniProt P05177); test: Inhibition of CYP1A2 (unknown origin); assay type: ADME
T1 sequence (P05177 whole entry): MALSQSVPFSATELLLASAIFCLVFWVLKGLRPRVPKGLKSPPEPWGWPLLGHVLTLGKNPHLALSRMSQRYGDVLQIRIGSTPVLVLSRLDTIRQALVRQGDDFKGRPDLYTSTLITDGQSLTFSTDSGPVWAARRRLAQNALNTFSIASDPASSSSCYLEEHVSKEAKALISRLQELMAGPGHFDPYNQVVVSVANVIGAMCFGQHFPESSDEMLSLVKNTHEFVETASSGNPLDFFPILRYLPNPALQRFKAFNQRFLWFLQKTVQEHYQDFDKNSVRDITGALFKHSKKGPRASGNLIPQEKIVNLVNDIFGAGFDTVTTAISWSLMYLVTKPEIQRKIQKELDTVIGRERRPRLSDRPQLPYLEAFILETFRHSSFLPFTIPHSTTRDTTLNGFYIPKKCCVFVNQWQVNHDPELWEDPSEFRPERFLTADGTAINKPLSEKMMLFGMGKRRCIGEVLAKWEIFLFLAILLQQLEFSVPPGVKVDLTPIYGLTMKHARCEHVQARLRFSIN

[7] = Lipophilicity, log D of the compound; assay type: physicochemical; conditions: octanol/water
[8] = Fraction unbound in human plasma; assay type: ADME, cell-free
[9] = test system: Mycobacterium tuberculosis; test: Antimicrobial activity against Mycobacterium tuberculosis 97A clinical isolate after 2 to 3 weeks; assay type: functional, organism-based
Cytochrome P450 2D6 = Cytochrome P450 2D6 (Homo sapiens, UniProt P10635); test: Inhibition of CYP2D6 (unknown origin); assay type: ADME
Cytochrome P450 2D6, sequence (P10635 whole entry): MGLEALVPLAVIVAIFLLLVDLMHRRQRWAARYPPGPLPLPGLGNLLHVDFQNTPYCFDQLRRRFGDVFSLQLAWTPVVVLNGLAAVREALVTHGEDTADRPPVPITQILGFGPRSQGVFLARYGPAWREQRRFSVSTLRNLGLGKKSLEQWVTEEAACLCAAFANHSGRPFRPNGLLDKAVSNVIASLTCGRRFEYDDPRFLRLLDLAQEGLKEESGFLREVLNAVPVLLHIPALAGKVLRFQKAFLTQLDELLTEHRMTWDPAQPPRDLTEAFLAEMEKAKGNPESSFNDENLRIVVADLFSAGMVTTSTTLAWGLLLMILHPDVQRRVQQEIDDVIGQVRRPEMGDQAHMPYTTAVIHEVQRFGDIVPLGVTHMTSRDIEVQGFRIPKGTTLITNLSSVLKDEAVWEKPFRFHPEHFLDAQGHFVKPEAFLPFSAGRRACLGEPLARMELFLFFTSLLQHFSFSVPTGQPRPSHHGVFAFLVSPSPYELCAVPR

Cytochrome P450 3A4 = Cytochrome P450 3A4 (Homo sapiens, UniProt P08684); test: Inhibition of CYP3A4 (unknown origin); assay type: ADME
Cytochrome P450 3A4, sequence (P08684 whole entry): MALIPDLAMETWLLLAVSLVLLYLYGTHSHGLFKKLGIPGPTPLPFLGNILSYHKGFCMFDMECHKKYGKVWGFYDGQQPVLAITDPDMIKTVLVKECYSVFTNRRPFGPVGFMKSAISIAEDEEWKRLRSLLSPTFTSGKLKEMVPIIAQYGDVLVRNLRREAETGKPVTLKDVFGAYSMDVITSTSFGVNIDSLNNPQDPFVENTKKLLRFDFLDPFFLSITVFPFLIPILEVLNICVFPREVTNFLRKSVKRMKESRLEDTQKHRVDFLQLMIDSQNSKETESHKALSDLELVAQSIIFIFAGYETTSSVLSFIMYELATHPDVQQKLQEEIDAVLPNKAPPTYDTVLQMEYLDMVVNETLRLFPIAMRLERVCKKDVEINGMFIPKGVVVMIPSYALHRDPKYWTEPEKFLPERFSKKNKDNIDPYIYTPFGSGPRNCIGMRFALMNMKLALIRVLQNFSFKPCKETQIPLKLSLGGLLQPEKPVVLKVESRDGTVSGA

[10] = test system: Mycobacterium tuberculosis; test: Antimicrobial activity against Mycobacterium tuberculosis ATCC 35811 after 2 to 3 weeks; assay type: functional, organism-based
[11] = test system: Mycobacterium tuberculosis; test: Antimicrobial activity against Mycobacterium tuberculosis DKU220 clinical isolate after 2 to 3 weeks; assay type: functional, organism-based
[12] = test system: Mycobacterium tuberculosis; test: Antimicrobial activity against Mycobacterium tuberculosis Erdman after 2 to 3 weeks; assay type: functional, organism-based
[13] = test system: Mycobacterium tuberculosis; test: Antimicrobial activity against Mycobacterium tuberculosis DKU211 clinical isolate after 2 to 3 weeks; assay type: functional, organism-based
[14] = test system: Mycobacterium tuberculosis; test: Antimicrobial activity against Mycobacterium tuberculosis Beijing after 2 to 3 weeks; assay type: functional, organism-based
[15] = test system: Mycobacterium tuberculosis; test: Antimicrobial activity against Mycobacterium tuberculosis DKU 76 clinical isolate after 2 to 3 weeks; assay type: functional, organism-based
Haemophilus influenzae [16] = test: Antimicrobial activity against Haemophilus influenzae ARC446 after 5 days by microdilution method; assay type: functional; conditions: ARC446, 120 h
[17] = Selectivity index, ratio of MIC for human THP1 cells to MIC for Mycobacterium tuberculosis H37Rv ATCC 27294; assay type: toxicity, cell-based, THP-1; conditions: read-out: Selectivity Index
Escherichia coli [18] = test: Antimicrobial activity against Escherichia coli ARC524 after 5 days by microdilution method; assay type: functional; conditions: ARC524, 120 h
Candida albicans = test: Antimicrobial activity against Candida albicans ARC526 after 5 days by microdilution method; assay type: functional; conditions: ARC526, 120 h
Escherichia coli [19] = test: Antimicrobial activity against Escherichia coli ARC523 after 5 days by microdilution method; assay type: functional; conditions: ARC523, 120 h
Streptococcus pneumoniae = test: Antimicrobial activity against Streptococcus pneumoniae ARC548 after 5 days by microdilution method; assay type: functional; conditions: ARC548, 120 h
Pseudomonas aeruginosa [20] = test: Antimicrobial activity against Pseudomonas aeruginosa ARC546 after 5 days by microdilution method; assay type: functional; conditions: ARC546, 120 h
Klebsiella pneumoniae = test: Antimicrobial activity against Klebsiella pneumoniae ARC1865 after 5 days by microdilution method; assay type: functional; conditions: ARC1865, 120 h
Staphylococcus aureus = test: Antimicrobial activity against Staphylococcus aureus ARC517 after 5 days by microdilution method; assay type: functional; conditions: ARC517, 120 h
Haemophilus influenzae [21] = test: Antimicrobial activity against Haemophilus influenzae ARC158 after 5 days by microdilution method; assay type: functional; conditions: ARC158, 120 h
Cytochrome P450 2C9 = Cytochrome P450 2C9 (Homo sapiens, UniProt P11712); test: Inhibition of CYP2C9 (unknown origin); assay type: ADME
Cytochrome P450 2C9, sequence (P11712 whole entry): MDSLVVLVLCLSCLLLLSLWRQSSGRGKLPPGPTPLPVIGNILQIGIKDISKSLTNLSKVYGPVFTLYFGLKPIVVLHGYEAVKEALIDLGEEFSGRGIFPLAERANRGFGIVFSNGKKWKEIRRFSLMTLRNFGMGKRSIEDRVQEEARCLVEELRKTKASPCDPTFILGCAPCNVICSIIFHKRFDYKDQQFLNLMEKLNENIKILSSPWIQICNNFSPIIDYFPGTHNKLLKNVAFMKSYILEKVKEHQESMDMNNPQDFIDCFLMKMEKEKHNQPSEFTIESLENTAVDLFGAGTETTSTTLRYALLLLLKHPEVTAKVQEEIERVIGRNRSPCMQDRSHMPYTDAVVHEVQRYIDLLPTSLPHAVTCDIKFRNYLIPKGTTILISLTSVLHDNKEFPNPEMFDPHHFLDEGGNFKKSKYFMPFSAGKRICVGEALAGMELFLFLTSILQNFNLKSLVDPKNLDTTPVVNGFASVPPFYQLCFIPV

Pseudomonas aeruginosa [22] = test: Antimicrobial activity against Pseudomonas aeruginosa ARC545 after 5 days by microdilution method; assay type: functional; conditions: ARC545, 120 h
Streptococcus pyogenes = test: Antimicrobial activity against Streptococcus pyogenes after 5 days by microdilution method; assay type: functional; conditions: 120 h

COCCOc1ccc(-c2ccc(COc3ncccc3C(=O)NCCO)nc2)c(C)c1
MCC at 24 h [1]: > 50 µM
MIC [2]: 4.5 µM (≈ 1.97 µg/mL)

Cc1cc(OC[C@@H]2CCCO2)ccc1-c1ccc(COc2ncccc2C(N)=O)nc1
MCC at 24 h [1]: > 50 µM
MIC [2]: 1.2 µM (≈ 0.503 µg/mL)

CNS(=O)(=O)c1cccnc1OCc1ccc(-c2ccc(OCCOC)cc2C)cn1
MCC at 24 h [1]: > 50 µM
MIC [2]: 50 µM (≈ 22.2 µg/mL)

COCCOc1ccc(-c2ccc(COc3ncccc3C(N)=O)nc2)c(C)c1
Activity [3]: Active
Activity [4]: Active
Activity [5]: Active
Activity [6]: Active
inhibition (INH) (Cytochrome P450 1A2): Not Active
logD [7]: 2.8
MCC at 24 h [1]: > 50 µM
fraction unbound [8]: 0.042
Activity [9]: Active
inhibition (INH) (Cytochrome P450 2D6): Not Active
inhibition (INH) (Cytochrome P450 3A4): Not Active
MIC [2]: 0.6 µM (≈ 0.236 µg/mL)
Activity [10]: Active
Activity [11]: Active
Activity [12]: Active
Activity [13]: Active
Activity [14]: Active
Activity [15]: Active

CCN(CC)CCOc1ccc(-c2ccc(COc3ncccc3C(N)=O)nc2)c(C)c1
MIC [2]: > 100 µM

COCCOc1ccc(-c2ccc(COc3nccc(OC)c3C(N)=O)nc2)c(C)c1
MCC at 24 h [1]: > 50 µM
MIC [2]: 6.2 µM (≈ 2.63 µg/mL)

NC(=O)c1cccnc1OCc1ccc(-c2ccccc2)cn1
MIC [2]: > 50 µM

Cc1cc(OC[C@H]2CCCO2)ccc1-c1ccc(COc2ncccc2C(N)=O)nc1
MCC at 24 h [1]: > 50 µM
MIC [2]: 4.7 µM (≈ 1.97 µg/mL)

COc1ccc(-c2ccc(COc3ncccc3C(N)=O)nc2)c(Cl)c1
MCC at 24 h [1]: > 50 µM
MIC [2]: 5.4 µM (≈ 2 µg/mL)

CC(C)OCCOc1ccc(-c2cnc(COc3ncccc3C(N)=O)nc2)c(Cl)c1
MIC80 (Haemophilus influenzae [16]): > 60 µM
Activity [3]: Active
Activity [4]: Active
Activity [5]: Active
selectivity ratio [17]: > 2500
MIC80 (Escherichia coli [18]): > 60 µM
Activity [6]: Active
MIC80 (Candida albicans): > 60 µM
logD [7]: 2.8
MCC at 24 h [1]: > 250 µM
MIC80 (Escherichia coli [19]): > 60 µM
MIC80 (Streptococcus pneumoniae): > 60 µM
Activity [9]: Active
MIC80 (Pseudomonas aeruginosa [20]): > 60 µM
MIC [2]: 0.12 µM (≈ 0.0531 µg/mL)
Activity [10]: Active
MIC80 (Klebsiella pneumoniae): > 60 µM
Activity [11]: Active
Activity [12]: Active
MIC80 (Staphylococcus aureus): > 60 µM
Activity [13]: Active
MIC80 (Haemophilus influenzae [21]): > 60 µM
Activity [14]: Active
IC50 (Cytochrome P450 2C9): 19 µM
MIC (Pseudomonas aeruginosa [22]): > 60 µM
Activity [15]: Active
MIC80 (Streptococcus pyogenes): > 60 µM

Cc1cc(OCC2CCCO2)ccc1-c1ccc(COc2ncccc2C(N)=O)nc1 (configuration not stated)
logD [7]: 2.8
MCC at 24 h [1]: > 50 µM
MIC [2]: 4.7 µM (≈ 1.97 µg/mL)

COCCOc1ccc(-c2cnc(COc3ncccc3C(N)=O)nc2)c(C)c1
MIC80 (Haemophilus influenzae [16]): > 60 µM
MIC80 (Escherichia coli [18]): > 60 µM
MIC80 (Candida albicans): > 60 µM
MCC at 24 h [1]: > 50 µM
MIC80 (Escherichia coli [19]): > 60 µM
MIC80 (Streptococcus pneumoniae): > 60 µM
MIC80 (Pseudomonas aeruginosa [20]): > 60 µM
MIC [2]: 1.5 µM (≈ 0.592 µg/mL)
MIC80 (Klebsiella pneumoniae): > 60 µM
MIC80 (Staphylococcus aureus): > 60 µM
MIC80 (Haemophilus influenzae [21]): > 60 µM
MIC (Pseudomonas aeruginosa [22]): > 60 µM
MIC80 (Streptococcus pyogenes): > 60 µM

COc1ccc(-c2ccc(COc3ncccc3C(N)=O)nc2)c(C)c1
MCC at 24 h [1]: > 50 µM
MIC [2]: 22 µM (≈ 7.69 µg/mL)
